Target: T1, BACE-1 enzyme (Homo sapiens, UniProt P56817)
T1 construct: purchased R & D Systems 931AS
Test: BACE Fluorescence Resonance Energy Transfer (FRET) Assay
Assay type: biochemical
Settings: pH 4-4.5, 30 min pre-incubation, about 1.5 hours reaction
Method: BACE Fluorescence Resonance Energy Transfer (FRET) Assay
In the following assay, the proteolytic activity of BACE is measured by observing cleavage of a fluorescent group from a peptide substrate containing a rhodamine fluorescent donor and a quenching acceptor.
The inhibitory activity of compounds of Formula (I) may be compared to a statine derived control inhibitor STA200 (MP Biomedical Cat. #STA-200). The cleavage reaction occurs when a BACE-1 substrate (Invitrogen, Cat. #P2986) was added to a reaction mixture containing BACE-1 enzyme (R & D Systems, Cat. #931AS) and allowed to proceed for about 1.5 hours. Fluorescence, used as a marker of BACE activity, is monitored using 540 nm excitation and 585 nm emission wavelengths (Envision, Perkin Elmer).
A typical assay reaction contains BACE-1 enzyme—in assay buffer (50 mM sodium acetate, pH 4-4.5, 0.01% CHAPS (3-[(3-Cholamidopropyl)dimethylammonio]-1-propanesulfonate), 0.0125% TritonX-100, 0.006% EDTA) which is pre-incubated for 30 minutes with test compound in 7.5% DMSO. The reaction is initiated with the addition of BACE-1 substrate in assay buffer and allowed to proceed for about 1.5 hours at room temperature. Assays are conducted in black 384-well microtiter plates and scanned at room temperature using 540 nm excitation and 585 nm emission wavelengths.
In some instances, the percent inhibition at a given concentration is reported instead of the IC50.

T1 sequence (P56817 46-457 limits assumed): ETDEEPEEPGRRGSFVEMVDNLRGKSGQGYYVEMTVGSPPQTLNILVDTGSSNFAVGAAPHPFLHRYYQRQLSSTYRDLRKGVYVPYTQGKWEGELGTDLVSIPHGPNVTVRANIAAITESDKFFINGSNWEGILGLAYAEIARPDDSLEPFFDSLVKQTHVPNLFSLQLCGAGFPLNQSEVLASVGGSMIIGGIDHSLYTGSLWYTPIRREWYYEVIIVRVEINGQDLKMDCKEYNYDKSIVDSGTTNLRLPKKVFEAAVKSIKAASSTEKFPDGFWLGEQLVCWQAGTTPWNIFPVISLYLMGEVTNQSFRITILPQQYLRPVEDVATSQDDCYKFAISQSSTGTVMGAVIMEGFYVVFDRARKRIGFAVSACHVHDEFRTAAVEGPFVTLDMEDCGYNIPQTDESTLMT

Compound | IC50 [µM]
O=C(Nc1nc2cc(OCc3ccc(Cl)cc3Cl)ccc2[nH]1)c1cn2cc(Cl)ccc2n1 [Example 15, 6-Chloro-imidazo[1,2-a]pyridine-2-carboxylic acid [5-(2,4-dichloro-benzyloxy)-1H-benzoimidazol-2-yl]-amide] | 0.23
Cc1cccn2cc(C(=O)Nc3nc4cc(OCc5ccc(OC(F)(F)F)cc5)ccc4[nH]3)nc12 [Example 33, 8-Methyl-imidazo[1,2-a]pyridine-2-carboxylic acid [5-(4-trifluoromethoxy-benzyloxy)-1H-benzoimidazol-2-yl]-amide] | 1.36
O=C(Nc1nc2cc(-c3cccc(C(F)(F)F)c3)ccc2[nH]1)c1cn2ccc(CO)cc2n1 [Example 200, 7-Hydroxymethyl-imidazo[1,2-a]pyridine-2-carboxylic acid [5-(3-trifluoromethyl-phenyl)-1H-benzoimidazol-2-yl]-amide] | 0.46
COc1ccc(-c2ccc3[nH]c(NC(=O)c4cn5cccc(C)c5n4)nc3c2)cc1C(F)(F)F [Example 89, 8-Methyl-imidazo[1,2-a]pyridine-2-carboxylic acid [5-(4-methoxy-3-trifluoromethyl-phenyl)-1H-benzoimidazol-2-yl]-amide] | 2.28
Cn1cc(-c2cccc3nc(C(=O)Nc4nc5cc(-c6cccc(C(F)(F)F)c6)ccc5[nH]4)cn23)cn1 [Example 213, 5-(1-methyl-1H-pyrazol-4-yl)-N-{5-[3-(trifluoromethyl)phenyl]-1H-benzimidazol-2-yl}imidazo[1,2-a]pyridine-2-carboxamide] | 0.26
CO[C@H]1CCN(c2cccc3nc(C(=O)Nc4nc5cc(-c6cc(F)cc(Cl)c6)ccc5[nH]4)cn23)C1 [Example 157, 5-((S)-3-Methoxy-pyrrolidin-1-yl)-imidazo[1,2-a]pyridine-2-carboxylic acid [5-(3-chloro-5-fluoro-phenyl)-1H-benzoimidazol-2-yl]-amide] | 0.32
Cc1cc(OCCN2CCCCC2)c2nc(C(=O)Nc3nc4cc(-c5cc(F)cc(Cl)c5)ccc4[nH]3)cn2c1 [Example 149, 6-Methyl-8-(2-piperidin-1-yl-ethoxy)-imidazo[1,2-a]pyridine-2-carboxylic acid [5-(3-chloro-5-fluoro-phenyl)-1H-benzoimidazol-2-yl]-amide] | 0.57
O=C(Nc1nc2cc(-c3cccc(C(F)(F)F)c3)ccc2[nH]1)c1cn2cc(CNCc3ccccc3)ccc2n1 [Example 186, 6-(Benzylamino-methyl)-imidazo[1,2-a]pyridine-2-carboxylic acid [5-(3-trifluoromethyl-phenyl)-1H-benzoimidazol-2-yl]-amide] | 0.43
Cc1cccn2cc(C(=O)Nc3nc4cc(-c5cc(Cl)ccc5Cl)ccc4[nH]3)nc12 [Example 88, 8-Methyl-imidazo[1,2-a]pyridine-2-carboxylic acid [5-(2,5-dichloro-phenyl)-1H-benzoimidazol-2-yl]-amide] | 0.29
CO[C@@H]1CCN(c2cccc3nc(C(=O)Nc4nc5cc(-c6cc(F)cc(Cl)c6)ccc5[nH]4)cn23)C1 [Example 156, 5-((R)-3-Methoxy-pyrrolidin-1-yl)-imidazo[1,2-a]pyridine-2-carboxylic acid [5-(3-chloro-5-fluoro-phenyl)-1H-benzoimidazol-2-yl]-amide] | 0.29
O=C(Nc1nc2cc(-c3cc(F)cc(Cl)c3)ccc2[nH]1)c1cn2cc(F)cc(N3CC[C@@H](O)C3)c2n1 [Example 153, 6-Fluoro-8-((R)-3-hydroxy-pyrrolidin-1-yl)-imidazo[1,2-a]pyridine-2-carboxylic acid [5-(3-chloro-5-fluoro-phenyl)-1H-benzoimidazol-2-yl]-amide] | 1.83
CO[C@H]1CCN(c2ccc3nc(C(=O)Nc4nc5cc(-c6cc(F)cc(Cl)c6)ccc5[nH]4)cn3c2C)C1 [Example 237, 6-((S)-3-Methoxy-pyrrolidin-1-yl)-5-methyl-imidazo[1,2-a]pyridine-2-carboxylic acid [5-(3-chloro-5-fluoro-phenyl)-1H-benzoimidazol-2-yl]-amide] | 0.23

From patent US20120101093A1, “SUBSTITUTED IMIDAZO[1,2-A]PYRIDINE DERIVATIVES, PHARMACEUTICAL COMPOSITIONS, AND METHODS OF USE AS BETA-SECRETASE INHIBITORS” (HIGH POINT PHARMACEUTICALS, LLC, priority 2009, published 2012)
